Measurements reported in article PMC7155171, “Probing the Open Global Health Chemical Diversity Library for Multistage-Active Starting Points for Next-Generation Antimalarials” (ACS Infectious Diseases, 2020).
pIC50: −log10 of the molar value.

Key:
[1] = system: P. berghei liver stage (PbLuc); experiment: P. berghei luciferase liver stage (PbLuc) assay in HepG2-A16-CD81 hepatocytes; format: cell-based, Plasmodium berghei; details: Plasmodium berghei; for pIC50: HepG2-A16-CD81, 12pt dose response, read-out: PbLuc 12pt dose response: IC50; for Emax: HepG2-A16-CD81, 48 h, 12pt dose response, maximum inhibition
[2] = system: HepG2-A16-CD81 hepatocytes; experiment: HepG2 cytotoxicity screening (CellTiter-Glo); details: for HepG2 cytotoxicity 12pt dose response: Maximum inhibition (%): 12pt dose response
[3] = HepG2 cytotoxicity screening (CellTiter-Glo); details: human, uninfected HepG2-A16-CD81 (EGFP) hepatocytes
[4] = target: recombinant firefly luciferase (Photinus pyralis, UniProt P08659); experiment: biochemical; details: dose response; for Emax: maximum inhibition, read-out: rLuc inhibition dose response: Maximum inhibition (%); for pIC50: read-out: rLuc inhibition dose response: IC50
Sequence of recombinant firefly luciferase (P08659 whole entry): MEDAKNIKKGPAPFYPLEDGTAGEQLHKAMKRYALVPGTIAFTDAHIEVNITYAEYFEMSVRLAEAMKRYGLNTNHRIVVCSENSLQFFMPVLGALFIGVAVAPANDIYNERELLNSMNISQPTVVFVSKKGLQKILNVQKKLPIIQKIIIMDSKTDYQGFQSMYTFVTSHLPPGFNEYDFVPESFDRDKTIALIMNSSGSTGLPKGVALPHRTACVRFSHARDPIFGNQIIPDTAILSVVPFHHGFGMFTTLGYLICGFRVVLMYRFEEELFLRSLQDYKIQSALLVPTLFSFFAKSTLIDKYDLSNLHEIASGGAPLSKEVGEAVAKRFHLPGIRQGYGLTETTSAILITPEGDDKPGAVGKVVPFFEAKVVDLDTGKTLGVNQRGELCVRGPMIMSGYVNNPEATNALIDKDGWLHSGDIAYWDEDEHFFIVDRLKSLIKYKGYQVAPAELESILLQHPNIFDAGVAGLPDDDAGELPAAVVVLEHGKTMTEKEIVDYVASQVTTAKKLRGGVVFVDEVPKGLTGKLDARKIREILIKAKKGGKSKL

SMILES	pIC50 [1]	HepG2 cytotoxicity 12pt dose response: Maximum inhibition (%) [2] [%]	pIC50 [3]	Emax [4] [%]	pIC50 [4]	Emax [1] [%]	HepG2 Cytotoxicity primary screen (2uM): % Inhibition [2] [%]	inhibition at 2 µM [3] [%]	inhibition at 2 µM ([1]; HepG2-A16-CD81, primary screen, 2 uM) [%]	inhibition at 10 µM [3] [%]
CN1CCOC(C(=O)Nc2ccc3c(c2)nc(C(C)(C)C)n3C)C1 (centres unmarked) [UCSD-0818200]	8.65	0.658	< 4.60	88.4	4.87					
N#Cc1c(Cl)nsc1NCC1(c2ccccc2)CCC1 [UCSD-0818294]	4.88	34.3	< 4.60	16.9	< 4.60	98.3	11.95			
O=C(CN1CCCC(c2ccn[nH]2)C1)Nc1nc2c(s1)CCCC2 (centres unmarked) [UCSD-0818422]	5.34	8.88	< 4.60	6.65	< 4.60	95.9	7.13			
O=C(c1ccc(Br)o1)N1CCN(Cc2ccc(OC(F)(F)F)cc2)CC1 [UCSD-0819339]	5.03	57.1	< 4.60	10.9	< 4.60	97.7		0		
CCc1nc(CN2CCN(c3ncnc4cc(F)ccc34)CC2)no1 [UCSD-0819439]	5.56	64.7	5.20	3.14	< 4.60	95.7		13.2		
COc1ccc(-c2nc(CN3CC(n4cc(C)cn4)C3)no2)cc1 [UCSD-0819446]	4.95	1.19	< 4.60	6.87	< 4.60	82.5	-12.79			
CC(NC(=O)c1cc(-c2cccc(Cl)c2)no1)C(=O)N1CCCC1 (centres unmarked) [UCSD-0819519]	4.96	0.675	< 4.60	37.2	< 4.60	91.8	0.00			
CC(=O)c1c(F)cccc1N1CCC(Cc2cccnc2)CC1 [UCSD-0819611]	5.37	73	4.81	7.02	< 4.60	116		15.8		
COc1cc(CN(C)C(=O)Cc2c(C)nn(C)c2C)ccc1OC(F)F [UCSD-0819780]	5.68	55.1	< 4.60	6.77	< 4.60	80.1		7.57		
CCc1ccc(-c2ncc3c(n2)N(C)CCN(CCN(C)C)C3=O)cc1 [UCSD-0824219]	4.92	6.88	< 4.60	7.09	< 4.60	81.1	4.38			
Cc1ccc(Sc2ccc(CN3CCC4(CCCNC4=O)C3)o2)cc1 (centres unmarked) [UCSD-0825128]	4.83	8.34	< 4.60	21.8	< 4.60	95	-4.20			
CC1(c2ccccc2)CCCN(Cc2cncn2C2CCCC2)C1 (centres unmarked) [UCSD-0827293]	4.87	58	4.73	7.12	< 4.60	95.5	-6.73			
Clc1ccccc1-c1cc(CNc2ncnc3c2CCNCC3)no1 [UCSD-0827811]	4.87	49.9	< 4.60	12.2	< 4.60	93.4	-1.07			
CC(C)CN1CCCC1c1ccc(C(=O)Nc2cccnc2)s1 (centres unmarked) [UCSD-0828121]	5.03	5.88	< 4.60	38.6	< 4.60			3.83		
Fc1ccc(N2CCCN(c3ccc(Cn4ccnc4)cn3)CC2)cc1 [UCSD-0828381]	5.94	52.6	4.62	34.7	< 4.60	98.9	3.83			
COc1ccc2cc(C3CN(C(=O)CCNC(C)=O)CCO3)ccc2c1 (centres unmarked) [UCSD-0829391]	6.48	2.45	< 4.60	67.5	5.00	85.2		-3.5	-1.1	
c1ccc(OCCNc2ncnc3sc4c(c23)CCNC4)cc1 [UCSD-0829760]	5.04	42.9	< 4.60	7.54	< 4.60	73		-2.42		
CC(=O)N1CCN(Cc2cccc3c2sc2ccccc23)CC(O)C1 (centres unmarked) [UCSD-0830872]	5.23	10.8	< 4.60	15.6	< 4.60	91		6.03		
CCc1cnc(N)nc1NC(C)c1ccc(C)c(C)c1 (centres unmarked) [UCSD-0831195]	6.36	56	< 4.60	17.1	< 4.30	89.9		3.76		
CNC(=O)CCC(=O)N1CCOC(c2ccc3cc(OC)ccc3c2)C1 (centres unmarked) [UCSD-0831800]	9.02	1	< 4.60	66.4	4.63	88.9		-0.85		3.9
COc1ccc(-c2cc(CNc3ncnc4c3CCNCC4)no2)cc1 [UCSD-0833048]	4.99	49.3	< 4.60	0.184	< 4.60	91.8	4.02			
CC(C)(CO)Nc1ccc(-c2nc(-c3ccccc3F)no2)cn1 [UCSD-0833103]	> 9.85	34.7	< 4.60	93.7	7.35	98.5		2.86		
CC(Nc1ncnc2c1CCNC2)c1ccc2c(c1)CCCC2 (centres unmarked) [UCSD-0833335]	5.01	57.6	4.74	12.6	< 4.60	79.1	0.57			
Cc1cc(NC(=O)c2ccc(CN3CC[C@H](O)C3)cc2)ccc1F [UCSD-0834308]	> 9.55	10.3	< 4.30	100	> 7.61	104		7.88		
